Source: PubChem BioAssay AID180 (DTP/NCI, 2004)
Where “and” joins values, the source holds several entries; their conditions need not be identical. Equal entries are not always repeated.

System: BDF1 mice, Adenocarcinoma 755 s.c., tumor weight T/C
Assay: NCI In Vivo Anticancer Drug Screen. Data for tumor model Adenocarcinoma 755 (subcutaneous) in B6D2F1 (BDF1) mice
Settings: endpoint: mean tumor weight, higher = larger tumour
Description: The antitumor activity of compounds was measured in mice bearing transplantable tumors. Survival or tumor size were measured and the results are expressed as the measurement made in the treated group (T) divided by the measurement made in the vehicle treated control group (C). The tumor model used in this assay is Adenocarcinoma 755 (subcutaneous) in B6D2F1 (BDF1) mice

[1] = dose: 125.0 mg/kg/injection, schedule: Q01DX011 (ip), vehicle: methylcellulose (MC)
[2] = dose: 31.25 mg/kg/injection, schedule: Q01DX011 (ip), vehicle: methylcellulose (MC)
[3] = dose: 62.5 mg/kg/injection, schedule: Q01DX011 (ip), vehicle: methylcellulose (MC)

## COc1cc(C(=O)O)nc(SC)n1
dose: 15.0 mg/kg/injection, schedule: Q01DX011 (ip), vehicle: methylcellulose (MC)
  T/C: 115 % of control
dose: 31.0 mg/kg/injection, schedule: Q01DX011 (ip), vehicle: methylcellulose (MC)
  T/C: 94 % of control
dose: 62.0 mg/kg/injection, schedule: Q01DX011 (ip), vehicle: methylcellulose (MC)
  T/C: 88 % of control
[1]
  T/C: 87 % of control

## CC(=O)OCC1OC(n2cnc3c(=O)[nH]c(=O)[nH]c32)C(OC(C)=O)C1OC(C)=O (stereo unspecified)
dose: 30.0 mg/kg/injection, schedule: Q01DX011 (ip), vehicle: saline
  T/C: 101 % of control
dose: 60.0 mg/kg/injection, schedule: Q01DX011 (ip), vehicle: saline
  T/C: 103 % of control
dose: 120.0 mg/kg/injection, schedule: Q01DX011 (ip), vehicle: saline
  T/C: 86 % of control
dose: 240.0 mg/kg/injection, schedule: Q01DX011 (ip), vehicle: saline
  T/C: 112 % of control

## Nc1nc(Cl)nc2c1ncn2C1OC(CO)C(O)C1O (stereo unspecified)
dose: 0.05 mg/kg/injection, schedule: Q01DX011 (ip), vehicle: methylcellulose (MC)
  T/C: 59 % of control
dose: 0.1 mg/kg/injection, schedule: Q01DX011 (ip), vehicle: methylcellulose (MC)
  T/C: 84 % of control
dose: 0.2 mg/kg/injection, schedule: Q01DX011 (ip), vehicle: methylcellulose (MC)
  T/C: 48 % of control

## CC1=CCN2CCC(O)C12 (stereo unspecified)
dose: 38.0 mg/kg/injection, schedule: Q01DX011 (ip), vehicle: carboxymethylcellulose (CMC)
  T/C: 95 % of control
dose: 150.0 mg/kg/injection, schedule: Q01DX011 (ip), vehicle: carboxymethylcellulose (CMC)
  T/C: 75 % of control

## C[C@]12CCCC[C@@H]1CC[C@@H]1[C@@H]2[C@@](C)(O)C[C@@]2(C)[C@H]1CC[C@]2(C)O
dose: 300.0 mg/kg/injection, schedule: Q01DX011 (sc), vehicle: steriod suspending solution
  T/C: 79 % of control

## CC(=O)N[C@H]1CC[C@H]2[C@@H]3CCC4=CC(=O)CC[C@]4(C)[C@H]3CC[C@]12C
dose: 5.0 mg/kg/injection, schedule: Q01DX011 (sc), vehicle: steriod suspending solution
  T/C: 99 % of control
dose: 50.0 mg/kg/injection, schedule: Q01DX011 (sc), vehicle: steriod suspending solution
  T/C: 111 % of control
dose: 100.0 mg/kg/injection, schedule: Q01DX011 (sc), vehicle: steriod suspending solution
  T/C: 89 % of control

## CN(C)c1nc(N(C)C)nc(N(C)C)n1
dose: 4.75 mg/kg/injection, schedule: Q01DX011 (ip), vehicle: other
  T/C: 121 % of control
dose: 9.5 mg/kg/injection, schedule: Q01DX011 (ip), vehicle: other
  T/C: 67 % of control
dose: 10.88 mg/kg/injection, schedule: Q01DX011 (ip), vehicle: other
  T/C: 95 % of control
dose: 10.9 mg/kg/injection, schedule: Q01DX011 (ip), vehicle: other
  T/C: 95 % of control
dose: 11.25 mg/kg/injection, schedule: Q01DX011 (iv), vehicle: other
  T/C: 108 % of control
dose: 13.85 mg/kg/injection, schedule: Q01DX011 (ip), vehicle: carboxymethylcellulose (CMC)
  T/C: 87 % of control
dose: 13.85 mg/kg/injection, schedule: Q01DX011 (ip), vehicle: other
  T/C: 104 % of control
dose: 14.13 mg/kg/injection, schedule: Q01DX011 (ip), vehicle: other
  T/C: 117 % of control
dose: 15.6 mg/kg/injection, schedule: Q01DX011 (oral), vehicle: other
  T/C: 77 % of control
dose: 15.6 mg/kg/injection, schedule: Q01DX011 (oral), vehicle: saline
  T/C: 88 % of control
dose: 19.0 mg/kg/injection, schedule: Q01DX011 (ip), vehicle: other
  T/C: 53 % of control
dose: 21.75 mg/kg/injection, schedule: Q01DX011 (ip), vehicle: other
  T/C: 55 % of control and 73 % of control
dose: 22.5 mg/kg/injection, schedule: Q01DX011 (iv), vehicle: other
  T/C: 67 % of control
dose: 25.0 mg/kg/injection, schedule: Q01DX011 (ip), vehicle: other
  T/C: 59 % of control
dose: 27.7 mg/kg/injection, schedule: Q01DX011 (ip), vehicle: carboxymethylcellulose (CMC)
  T/C: 161 % of control
dose: 27.7 mg/kg/injection, schedule: Q01DX011 (ip), vehicle: other
  T/C: 56 % of control
dose: 30.37 mg/kg/injection, schedule: Q01DX011 (ip), vehicle: carboxymethylcellulose (CMC)
  T/C: 53 % of control
dose: 31.25 mg/kg/injection, schedule: Q01DX011 (ip), vehicle: carboxymethylcellulose (CMC)
  T/C: 118 % of control
[2]
  T/C: 91 % of control
dose: 31.25 mg/kg/injection, schedule: Q01DX011 (iv), vehicle: other
  T/C: 80 % of control and 85 % of control
dose: 31.3 mg/kg/injection, schedule: Q01DX011 (oral), vehicle: other
  T/C: 101 % of control
dose: 31.3 mg/kg/injection, schedule: Q01DX011 (oral), vehicle: saline
  T/C: 75 % of control
dose: 34.8 mg/kg/injection, schedule: Q01DX011 (ip), vehicle: carboxymethylcellulose (CMC)
  T/C: 50 % of control
dose: 43.5 mg/kg/injection, schedule: Q01DX011 (ip), vehicle: carboxymethylcellulose (CMC)
  T/C: 47 % of control
dose: 43.5 mg/kg/injection, schedule: Q01DX011 (ip), vehicle: other
  T/C: 109 % of control
dose: 45.0 mg/kg/injection, schedule: Q01DX011 (iv), vehicle: other
  T/C: 89 % of control
dose: 55.4 mg/kg/injection, schedule: Q01DX011 (ip), vehicle: carboxymethylcellulose (CMC)
  T/C: 96 % of control
dose: 55.4 mg/kg/injection, schedule: Q01DX011 (ip), vehicle: other
  T/C: 45 % of control
dose: 56.5 mg/kg/injection, schedule: Q01DX011 (ip), vehicle: other
  T/C: 54 % of control
dose: 58.0 mg/kg/injection, schedule: Q01DX011 (ip), vehicle: carboxymethylcellulose (CMC)
  T/C: 29 % of control
dose: 60.75 mg/kg/injection, schedule: Q01DX011 (ip), vehicle: carboxymethylcellulose (CMC)
  T/C: 78 % of control
dose: 62.5 mg/kg/injection, schedule: Q01DX011 (ip), vehicle: carboxymethylcellulose (CMC)
  T/C: 88 % of control
[3]
  T/C: 82 % of control
dose: 62.5 mg/kg/injection, schedule: Q01DX011 (iv), vehicle: other
  T/C: 51 % of control and 57 % of control
dose: 62.5 mg/kg/injection, schedule: Q01DX011 (oral), vehicle: other
  T/C: 74 % of control
dose: 62.5 mg/kg/injection, schedule: Q01DX011 (oral), vehicle: saline
  T/C: 105 % of control
dose: 87.0 mg/kg/injection, schedule: Q01DX011 (ip), vehicle: carboxymethylcellulose (CMC)
  T/C: 11 % of control
dose: 87.0 mg/kg/injection, schedule: Q01DX011 (ip), vehicle: other
  T/C: 14 % of control
dose: 121.5 mg/kg/injection, schedule: Q01DX011 (ip), vehicle: carboxymethylcellulose (CMC)
  T/C: 48 % of control
dose: 125.0 mg/kg/injection, schedule: Q01DX011 (ip), vehicle: carboxymethylcellulose (CMC)
  T/C: 43 % of control
[1]
  T/C: 34 % of control
dose: 125.0 mg/kg/injection, schedule: Q01DX011 (iv), vehicle: other
  T/C: 8 % of control
dose: 125.0 mg/kg/injection, schedule: Q01DX011 (oral), vehicle: other
  T/C: 54 % of control
dose: 125.0 mg/kg/injection, schedule: Q01DX011 (oral), vehicle: saline
  T/C: 106 % of control
dose: 250.0 mg/kg/injection, schedule: Q01DX011 (ip), vehicle: carboxymethylcellulose (CMC)
  T/C: 36 % of control
dose: 250.0 mg/kg/injection, schedule: Q01DX011 (oral), vehicle: saline
  T/C: 40 % of control

## Nc1nc(SCc2ccc(Cl)cc2)c2ncn(C3OC(CO)C(O)C3O)c2n1 (stereo unspecified)
dose: 37.5 mg/kg/injection, schedule: Q01DX011 (ip), vehicle: methylcellulose (MC)
  T/C: 6 % of control
dose: 75.0 mg/kg/injection, schedule: Q01DX011 (ip), vehicle: methylcellulose (MC)
  T/C: 1 % of control

## CC(C)CCCCCCCCCCCCC(=O)NCC(=O)NC1C(O)C(O)C(Nc2ncnc3nc[nH]c23)OC1C(O)CO (stereo unspecified)
dose: 0.11 mg/kg/injection, schedule: Q## X000 (ip), vehicle: carboxymethylcellulose (CMC)
  T/C: 62 % of control
dose: 0.22 mg/kg/injection, schedule: Q01DX011 (ip), vehicle: carboxymethylcellulose (CMC)
  T/C: 65 % of control
dose: 0.22 mg/kg/injection, schedule: Q## X000 (ip), vehicle: carboxymethylcellulose (CMC)
  T/C: 41 % of control
dose: 0.45 mg/kg/injection, schedule: Q01DX011 (ip), vehicle: carboxymethylcellulose (CMC)
  T/C: 29 % of control
dose: 0.45 mg/kg/injection, schedule: Q## X000 (ip), vehicle: carboxymethylcellulose (CMC)
  T/C: 12 % of control
dose: 0.9 mg/kg/injection, schedule: Q01DX011 (ip), vehicle: carboxymethylcellulose (CMC)
  T/C: 5 % of control

## Clc1cccc(CSc2ncnc3nc[nH]c23)c1
dose: 3.9 mg/kg/injection, schedule: Q01DX011 (ip), vehicle: methylcellulose (MC)
  T/C: 56 % of control
dose: 7.8 mg/kg/injection, schedule: Q01DX011 (ip), vehicle: methylcellulose (MC)
  T/C: 57 % of control
dose: 15.6 mg/kg/injection, schedule: Q01DX011 (ip), vehicle: methylcellulose (MC)
  T/C: 20 % of control
[2]
  T/C: 3 % of control and 7 % of control
[3]
  T/C: 5 % of control

## Cc1ccc(CSc2nc(N)nc3nc[nH]c23)cc1C
[2]
  T/C: 37 % of control
[3]
  T/C: 33 % of control
[1]
  T/C: 15 % of control
dose: 250.0 mg/kg/injection, schedule: Q01DX011 (ip), vehicle: methylcellulose (MC)
  T/C: 1 % of control and 7 % of control
dose: 350.0 mg/kg/injection, schedule: Q01DX011 (ip), vehicle: methylcellulose (MC)
  T/C: 5 % of control
